This experiment deals with BDF1 mice, Friend leukemia sc, tumor weight T/C. As to the kind of experiment: NCI In Vivo Anticancer Drug Screen. Data for tumor model Friend Virus Leukemia (Solid) (subcutaneous) in B6D2F1 (BDF1) mice. The note with it: endpoint: mean tumor weight, higher = larger tumour. As to the method:
The antitumor activity of compounds was measured in mice bearing transplantable tumors. Survival or tumor size were measured and the results are expressed as the measurement made in the treated group (T) divided by the measurement made in the vehicle treated control group (C). The tumor model used in this assay is Friend Virus Leukemia (Solid) (subcutaneous) in B6D2F1 (BDF1) mice

[1] abbreviates: dose: 75.0 mg/kg/injection, schedule: Q01DX011 (ip), vehicle: carboxymethylcellulose (CMC).
Setting [2] is: dose: 62.5 mg/kg/injection, schedule: Q01DX011 (ip), vehicle: carboxymethylcellulose (CMC).
[3] abbreviates: dose: 125.0 mg/kg/injection, schedule: Q01DX011 (ip), vehicle: carboxymethylcellulose (CMC).
The mark [4] stands for this setting: dose: 250.0 mg/kg/injection, schedule: Q01DX011 (ip), vehicle: carboxymethylcellulose (CMC).
The mark [5] stands for this setting: dose: 4.0 mg/kg/injection, schedule: Q01DX011 (ip), vehicle: carboxymethylcellulose (CMC).

Experimental findings from PubChem BioAssay AID228 (DTP/NCI, 2004) are described below.

The structures appear in SMILES notation. “And” between values parts separate entries of the source, which are not always exact repeats. Equal entries are not always repeated. Inconclusive results are not listed.

For the molecule `NCC(O)c1ccc(O)c(O)c1` (stereo unspecified), the T/C reads like this: (dose: 9.37 mg/kg/injection, schedule: Q01DX011 (ip), vehicle: saline) 84 % of control; (dose: 18.75 mg/kg/injection, schedule: Q01DX011 (ip), vehicle: saline) 69 % of control; (dose: 37.5 mg/kg/injection, schedule: Q01DX011 (ip), vehicle: saline) 30 % of control.
With `[I][Hg][CH2]C1OCCOC1[CH2][Hg][I]` (stereo unspecified), the T/C is, setting by setting: (dose: 18.0 mg/kg/injection, schedule: Q01DX011 (ip), vehicle: carboxymethylcellulose (CMC)) 66 % of control; (dose: 37.0 mg/kg/injection, schedule: Q01DX011 (ip), vehicle: carboxymethylcellulose (CMC)) 76 % of control; under setting [1], 46 % of control.
As to `CC(C)CCS(=O)(=O)OCCCCOS(=O)(=O)CCC(C)C`, the T/C runs as follows: under setting [2], 98 % of control; under setting [3], 97 % of control; under setting [4], 73 % of control; (dose: 500.0 mg/kg/injection, schedule: Q01DX011 (ip), vehicle: carboxymethylcellulose (CMC)) 39 % of control.
As for `NC(Cc1cccs1)C(=O)O` (stereo unspecified), the T/C under setting [4] was 112 % of control.
Regarding `OCC1OC(Oc2ccc(O)cc2)C(O)C(O)C1O` (stereo unspecified), the T/C (dose: 25.0 mg/kg/injection, schedule: Q01DX011 (ip), vehicle: saline) was 84 % of control; the T/C (dose: 50.0 mg/kg/injection, schedule: Q01DX011 (ip), vehicle: saline) is 97 % of control; the T/C (dose: 100.0 mg/kg/injection, schedule: Q01DX011 (ip), vehicle: saline) is 97 % of control; the T/C (dose: 200.0 mg/kg/injection, schedule: Q01DX011 (ip), vehicle: saline) is 75 % of control.
On to `CN(N=O)C(N)=O`, for which the T/C was 94 % of control and 95 % of control under setting [5]; 53 % of control (dose: 5.0 mg/kg/injection, schedule: Q01DX011 (ip), vehicle: saline); 98 % of control and 117 % of control (dose: 8.0 mg/kg/injection, schedule: Q01DX011 (ip), vehicle: carboxymethylcellulose (CMC)); 31 % of control (dose: 10.0 mg/kg/injection, schedule: Q01DX011 (ip), vehicle: saline); 20 % of control (dose: 15.0 mg/kg/injection, schedule: Q01DX011 (ip), vehicle: saline); 46 % of control and 49 % of control (dose: 16.0 mg/kg/injection, schedule: Q01DX011 (ip), vehicle: carboxymethylcellulose (CMC)). Moreover, the T/C by setting is: (dose: 22.0 mg/kg/injection, schedule: Q01DX011 (ip), vehicle: saline) 22 % of control; (dose: 30.0 mg/kg/injection, schedule: Q01DX011 (ip), vehicle: carboxymethylcellulose (CMC)) 59 % of control.
In the case of `O=P(N1CC1)(N1CC1)N1CC1`, the T/C reads like this: (dose: 0.5 mg/kg/injection, schedule: Q01DX011 (ip), vehicle: carboxymethylcellulose (CMC)) 86 % of control; (dose: 1.0 mg/kg/injection, schedule: Q01DX011 (ip), vehicle: carboxymethylcellulose (CMC)) 83 % of control; (dose: 2.0 mg/kg/injection, schedule: Q01DX011 (ip), vehicle: carboxymethylcellulose (CMC)) 84 % of control and 88 % of control; under setting [5], 25 % of control and 37 % of control.
As to `CC1CCC2(C(=O)O)CCC3(C)C(=CCC4C5(C)CCC(O)C(C)(C)C5CCC43C)C2C1C` (stereo unspecified), the T/C runs as follows: (dose: 50.0 mg/kg/injection, schedule: Q01DX011 (ip), vehicle: other) 76 % of control; (dose: 100.0 mg/kg/injection, schedule: Q01DX011 (ip), vehicle: other) 69 % of control; (dose: 200.0 mg/kg/injection, schedule: Q01DX011 (ip), vehicle: other) 115 % of control.
Turning to `C[C@H]1C(=O)O[C@@H]2CCN3CC=C(COC(=O)[C@](C)(O)[C@@]1(C)O)[C@H]23`, the T/C runs as follows: (dose: 31.0 mg/kg/injection, schedule: Q01DX011 (ip), vehicle: carboxymethylcellulose (CMC)) 95 % of control; under setting [2], 61 % of control; under setting [3], 66 % of control; under setting [4], 38 % of control.
Consider `[N-]=[N+]=[N-]`, for which the T/C reads like this: (dose: 1.06 mg/kg/injection, schedule: Q01DX011 (ip), vehicle: carboxymethylcellulose (CMC)) 89 % of control; (dose: 2.12 mg/kg/injection, schedule: Q01DX011 (ip), vehicle: carboxymethylcellulose (CMC)) 108 % of control; (dose: 4.25 mg/kg/injection, schedule: Q01DX011 (ip), vehicle: carboxymethylcellulose (CMC)) 114 % of control; (dose: 8.5 mg/kg/injection, schedule: Q01DX011 (ip), vehicle: carboxymethylcellulose (CMC)) 117 % of control.
As for `C1CC[N-]CC1.C1CC[N-]CC1.C1CC[N-]CC1.C1CC[N-]CC1.[Cl][Co][Cl]`, the T/C (dose: 50.0 mg/kg/injection, schedule: Q01DX011 (ip), vehicle: carboxymethylcellulose (CMC)) is 160 % of control.
In the case of `CC(=O)N(C)C`, the T/C (dose: 250.0 mg/kg/injection, schedule: Q01DX011 (ip), vehicle: saline) is 113 % of control.
`CS(=O)(=O)OCCCCCCCCCOS(C)(=O)=O`: the T/C runs as follows: (dose: 18.75 mg/kg/injection, schedule: Q01DX011 (ip), vehicle: carboxymethylcellulose (CMC)) 81 % of control; (dose: 37.5 mg/kg/injection, schedule: Q01DX011 (ip), vehicle: carboxymethylcellulose (CMC)) 51 % of control; under setting [1], 49 % of control.
As for `CS(=O)(=O)OCCCCOS(C)(=O)=O`, the T/C is 107 % of control (dose: 6.62 mg/kg/injection, schedule: Q01DX011 (ip), vehicle: carboxymethylcellulose (CMC)); 65 % of control (dose: 7.0 mg/kg/injection, schedule: Q01DX011 (ip), vehicle: carboxymethylcellulose (CMC)); 68 % of control (dose: 13.25 mg/kg/injection, schedule: Q01DX011 (ip), vehicle: carboxymethylcellulose (CMC)); 91 % of control (dose: 14.0 mg/kg/injection, schedule: Q01DX011 (ip), vehicle: carboxymethylcellulose (CMC)); 110 % of control (dose: 26.5 mg/kg/injection, schedule: Q01DX011 (ip), vehicle: carboxymethylcellulose (CMC)); 55 % of control (dose: 27.0 mg/kg/injection, schedule: Q01DX011 (ip), vehicle: carboxymethylcellulose (CMC)). Besides, the T/C (dose: 53.0 mg/kg/injection, schedule: Q01DX011 (ip), vehicle: carboxymethylcellulose (CMC)) is 66 % of control.
For the molecule `CC(C)CCSc1nc(N)nc2nc[nH]c12`, the T/C is 59 % of control (dose: 11.0 mg/kg/injection, schedule: Q01DX011 (ip), vehicle: carboxymethylcellulose (CMC)); 38 % of control (dose: 22.0 mg/kg/injection, schedule: Q01DX011 (ip), vehicle: carboxymethylcellulose (CMC)); 18 % of control and 21 % of control (dose: 45.0 mg/kg/injection, schedule: Q01DX011 (ip), vehicle: carboxymethylcellulose (CMC)); 7 % of control and 21 % of control (dose: 90.0 mg/kg/injection, schedule: Q01DX011 (ip), vehicle: carboxymethylcellulose (CMC)); 5 % of control (dose: 180.0 mg/kg/injection, schedule: Q01DX011 (ip), vehicle: carboxymethylcellulose (CMC)).
As for `CCOc1ccc2nc(S(N)(=O)=O)sc2c1`, the T/C (dose: 62.0 mg/kg/injection, schedule: Q01DX011 (ip), vehicle: carboxymethylcellulose (CMC)) was 77 % of control and the T/C under setting [3] was 89 % of control.
In the case of `NC(=O)/C=C\C(=O)O` (tested in a mixture with another compound), the T/C (dose: 31.0 mg/kg/injection, schedule: Q#A X022 (ip), vehicle: carboxymethylcellulose (CMC)) is 85 % of control; the T/C (dose: 62.5 mg/kg/injection, schedule: Q#A X022 (ip), vehicle: carboxymethylcellulose (CMC)) is 75 % of control; the T/C (dose: 125.0 mg/kg/injection, schedule: Q#A X022 (ip), vehicle: carboxymethylcellulose (CMC)) is 65 % of control; the T/C (dose: 250.0 mg/kg/injection, schedule: Q#A X022 (ip), vehicle: carboxymethylcellulose (CMC)) is 58 % of control.
